Data: ChEMBL document CHEMBL4000199, “Synthesis and biological evaluation of novel hydroxybenzaldehyde-based kojic acid analogues as inhibitors of mushroom tyrosinase” (Bioorg Med Chem Lett, 2017)
pIC50: −log10 of the molar value. Activity calls are given as the source filed them. The rule behind the calls is not given here.

Legend:
Tyrosinase = biological target: T1, Tyrosinase (Agaricus bisporus, UniProt O42713); test: (§1) Inhibition of mushroom tyrosinase diphenolase activity assessed as reduction in dopachrome formation using L-DOPA as substrate preincubated for 20 mins followed by substrate addition measured for 1 min
T1 sequence (O42713 whole entry): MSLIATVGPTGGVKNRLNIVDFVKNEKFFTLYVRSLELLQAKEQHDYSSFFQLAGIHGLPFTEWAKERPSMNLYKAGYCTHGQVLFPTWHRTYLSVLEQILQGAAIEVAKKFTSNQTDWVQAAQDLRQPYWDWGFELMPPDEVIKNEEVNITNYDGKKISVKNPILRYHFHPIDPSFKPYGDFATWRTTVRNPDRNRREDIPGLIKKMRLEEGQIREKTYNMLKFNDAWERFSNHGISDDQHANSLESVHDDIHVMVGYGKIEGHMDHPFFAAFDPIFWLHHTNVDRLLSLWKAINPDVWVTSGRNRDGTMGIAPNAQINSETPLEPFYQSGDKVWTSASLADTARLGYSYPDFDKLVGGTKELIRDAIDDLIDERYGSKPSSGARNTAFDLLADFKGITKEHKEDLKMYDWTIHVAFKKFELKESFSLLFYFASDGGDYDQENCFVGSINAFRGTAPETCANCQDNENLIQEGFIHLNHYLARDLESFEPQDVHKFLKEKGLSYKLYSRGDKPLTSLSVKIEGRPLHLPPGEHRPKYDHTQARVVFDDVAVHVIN

[1] = biological target: T2, Tyrosinase (Agaricus bisporus) (UniProt O42713); test: Competitive inhibition of mushroom tyrosinase up to 1.2 uM using varying levels of L-DOPA as substrate preincubated for 20 mins followed by substrate addition measured for 1 min by Lineweaver-Burk plot analysis
T2 sequence (whole entry): T1 sequence (O42713 whole entry)

[2] = biological target: T2, Tyrosinase (Agaricus bisporus); test: as §1
Mushroom tyrosinase = Mushroom tyrosinase (Agaricus bisporus, UniProt O42713+Q00024+C7FF04+C7FF05); test: Inhibition of mushroom tyrosinase using L-tyrosine as substrate measured after 20 mins

SMILES	pIC50 (Tyrosinase)	also measured
O=c1cc(CSc2nncn2/N=C/c2ccc(O)cc2)occ1O	5.07	
O=c1cc(CSc2nnc(-c3ccccc3)n2NCc2ccccc2O)occ1O	5.82	
O=c1cc(CSc2nnc(-c3cccc(Cl)c3)n2NCc2ccccc2O)occ1O	5.60	
O=c1cc(CSc2nncn2NCc2ccccc2O)occ1O	5.23	
O=c1cc(CSc2nnc(-c3ccccc3Cl)n2/N=C/c2ccc(O)c(O)c2)occ1O	5.28	
Cc1ccc(-c2nnc(SCc3cc(=O)c(O)co3)n2NCc2ccccc2O)cc1	5.42	
COc1cc(/C=N/n2cnnc2SCc2cc(=O)c(O)co2)ccc1O	4.76	
Cc1nnc(SCc2cc(=O)c(O)co2)n1NCc1ccccc1O	4.99	
O=c1cc(CSc2nnc(-c3ccccc3)n2NCc2ccc(O)cc2O)occ1O	5.87	inhibition [1]: Active; inhibition [2]: Dose-dependent effect
O=c1cc(CSc2ccc(O)cc2)occ1O		IC50 (Mushroom tyrosinase): 0.54 µM

More lines, main results first:

pIC50 (Tyrosinase)	SMILES	also measured
5.77	O=c1cc(CSc2nnc(-c3ccc(Cl)cc3)n2NCc2ccccc2O)occ1O	
4.90	Cc1nnc(SCc2cc(=O)c(O)co2)n1NCc1cccc(O)c1	
5.12	CCc1nnc(SCc2cc(=O)c(O)co2)n1NCc1ccccc1O	
5.24	Cc1nnc(SCc2cc(=O)c(O)co2)n1NCc1ccc(O)cc1O	
5.02	O=c1cc(CSc2nncn2/N=C/c2ccc(O)cc2O)occ1O	
